Here are results for 1 compound from patent US20230203058A1, “MACROCYCLIC DIAMINE DERIVATIVES AS ENT INHIBITORS FOR THE TREATMENT OF CANCERS, AND COMBINATION THEREOF WITH ADENOSINE RECEPTOR ANTAGONISTS” (ITEOS BELGIUM SA, priority 2020, published 2023).

The subject of test [1] is stimulated primary human T cells. Description: T cell proliferation assay (rescue of proliferation in presence of ATP, CFSE dilution). The conditions noted are these: 100 uM ATP. The format is cell-based.
Test [2] has as its target T1, hERG ion channel (Homo sapiens, UniProt Q12809).
T1 construct: Chinese Hamster Ovary cell lines stably expressing the full-length ion channel; expressed in transfected cells
The test is described as follows: hERG ion channel inhibition (Patchliner automated patch-clamp, CHO cells). The format is cell-based. The conditions noted are these: whole-cell, room temperature, 6-point curve up to 100 µM. The procedure:
The compounds were tested for inhibition of hERG ion channel. 6-Point concentration-response curves were generated on the Patchliner automated patch-clamp using serial dilutions from a maximum test concentration of 100 µM.
Compounds were solubilised to 33 mM in DMSO before dilution in HBPS to 100 µM. 6-Point concentration-response curves were generated using serial dilutions from the top test concentration. Electrophysiological recordings were made from a Chinese Hamster Ovary cell lines stably expressing the full-length ion channel. Single cell ionic currents were measured in whole-cell configuration at room temperature (21-23° C.) using a Patchliner (Nanion Technologies). The internal solution for hERG contained (mM): 120 KF, 20 KCl, 10 EGTA, 10 HEPES and was buffered to pH 7.3. The external solution (HEPES-buffered saline, HBPS) contained (mM): 138 NaCl, 4.5 KCl, 1.8 CaC12, 1.0 MgC12, 10 HEPES, 10 glucose, buffered to pH7.4. Cells were clamped at a holding potential of -80 mV before a depolarising step appropriate for the hERG channel. Currents were measured from the step and referenced to the holding current. Compounds were incubated for 90 seconds. Concentration-response curves were generated by cumulative addition of compound with concentrations low to high. In all cases, steady-state inhibition was achieved before the next concentration of compound was added.
IC50 values were obtained from a 4-parameter logistic fit of the concentration-response data: […]

Read-outs that look alike come from different tables or passages of the source.

T1 sequence (Q12809 whole entry): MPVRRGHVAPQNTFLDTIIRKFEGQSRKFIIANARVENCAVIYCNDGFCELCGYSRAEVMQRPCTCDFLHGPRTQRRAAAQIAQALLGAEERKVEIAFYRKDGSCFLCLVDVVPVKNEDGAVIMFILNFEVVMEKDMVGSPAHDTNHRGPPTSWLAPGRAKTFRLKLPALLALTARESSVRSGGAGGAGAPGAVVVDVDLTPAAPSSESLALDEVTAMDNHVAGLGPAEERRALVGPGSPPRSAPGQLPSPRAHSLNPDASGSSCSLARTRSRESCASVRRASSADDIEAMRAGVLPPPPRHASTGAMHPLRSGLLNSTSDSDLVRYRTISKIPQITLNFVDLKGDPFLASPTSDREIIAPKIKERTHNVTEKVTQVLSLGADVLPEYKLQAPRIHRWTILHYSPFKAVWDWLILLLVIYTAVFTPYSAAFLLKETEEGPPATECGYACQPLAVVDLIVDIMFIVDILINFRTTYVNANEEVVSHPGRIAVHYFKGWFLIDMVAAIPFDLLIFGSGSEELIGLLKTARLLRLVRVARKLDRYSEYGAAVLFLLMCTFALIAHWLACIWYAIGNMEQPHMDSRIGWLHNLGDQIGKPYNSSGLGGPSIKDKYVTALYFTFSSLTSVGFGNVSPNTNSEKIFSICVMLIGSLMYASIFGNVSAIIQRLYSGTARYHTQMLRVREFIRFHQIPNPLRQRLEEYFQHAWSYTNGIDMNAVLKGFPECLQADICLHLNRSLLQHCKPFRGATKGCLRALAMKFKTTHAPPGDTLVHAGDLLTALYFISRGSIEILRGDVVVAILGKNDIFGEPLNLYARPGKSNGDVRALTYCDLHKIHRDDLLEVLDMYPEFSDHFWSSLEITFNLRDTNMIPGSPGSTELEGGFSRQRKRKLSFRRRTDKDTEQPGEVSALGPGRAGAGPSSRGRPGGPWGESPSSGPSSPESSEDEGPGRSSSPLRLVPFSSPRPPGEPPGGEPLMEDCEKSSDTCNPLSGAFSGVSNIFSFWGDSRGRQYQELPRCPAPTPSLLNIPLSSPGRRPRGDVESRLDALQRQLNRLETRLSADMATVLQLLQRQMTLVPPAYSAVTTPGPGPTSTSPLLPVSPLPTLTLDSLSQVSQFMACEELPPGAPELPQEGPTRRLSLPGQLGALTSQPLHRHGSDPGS

Regarding `COc1cc(C(=O)O[C@H]2CCCOc3cc(cc(OC)c3OC)C(=O)OCCCN3CCCN(CC2)CC3)cc(OC)c1OC` [Compound 2, (12S)-74,75-dimethoxy-6-oxo-5,8-dioxa-1(1,4)-diazepana-7(1,3)-benzenacyclotetradecaphane-12-yl 3,4,5-trimethoxybenzoate], the IC50 in test [1] (Condition A: X-VIVO15, read-out: T Cell proliferation (Condition A) IC50) is 0.02 to 0.5 µM; in test [1] (Condition B: X-VIVO15, 2% HSA and 0,1% AAG, read-out: (2) T Cell proliferation (Condition B) IC50), 0.02 to 0.5 µM; in test [2], 2.5 µM.
